# Data published in patent US11738031B2, “Compositions and methods for preventing or treating muscle conditions” (The Board of Trustees of the Leland Stanford Junior …, priority 2017, dated 2023).
# Key:
# [1] = published, FDA approved dose range; cited from earlier work
# [2] = tested on: endogenous MuSCs in tibialis anterior (TA) muscles; experiment: BLI of endogenous MuSC expansion after intramuscular bupivacaine/dmPGE2 (Example 4); assay type: in vivo, mouse; details: 0.125%, 0.25% or 0.5% BPV in combination with 10 μg dmPGE2, two weeks after injection
# Procedure: Double-transgenic Pax7^CreERT2;Rosa26-LSL-Luc mice were generated by crossing Pax7^CreERT2 mice and Rosa26-LSL-Luc mice obtained from Jackson Laboratory (Stock #005125). These genotypes were validated by appropriate PCR-based strategies. All mice from transgenic and wild-type strains were of young age (2-4 months). All experiments were conducted using age and gender-matched controls. As depicted in the experimental scheme shown in FIG. 23A, mice were treated with five consecutive daily intraperitoneal injections of tamoxifen to activate luciferase expression under the control of the Pax7 promoter. A week after the last tamoxifen injection, the tibialis anterior (TA) muscles were injected intramuscularly with 50 μL of a drug mixture containing 0.125%, 0.25%, or 0.5% bupivacaine (BPV) (Cayman Chemical Cat #16618) and 10 μg 16,16-dimethyl prostaglandin E2 (dmPGE2; Tocris, Catalog #4027) using a 30 gauge needle on a Hamilton syringe. The contralateral TA received 50 μL of a mixture containing 0.5% bupivacaine (BPV) and DMSO vehicle as baseline sham control. Bioluminescence was assayed at days 3, 7, 10 and 14 post-injury.
# Bioluminescence imaging (BLI) was performed using a Xenogen-100 system, as previously described. Briefly, mice were anesthetized using isofluorane inhalation and administered 120 μL D-luciferin (0.1 mmol/kg, reconstituted in PBS; Caliper LifeSciences) by intraperitoneal injection. BLI was acquired with between 5-60 second exposure at F-stop=1.0 at 5 minutes after luciferin injection. Digital images were recorded and analyzed using Living Image software (Caliper LifeSciences). Images were analyzed with a consistent region-of-interest (ROI) placed over each hindlimb to calculate a bioluminescence signal. A bioluminescence signal was calculated in radiance (p s^−1 cm^−2 sr^−1) value of 10^4 to define a positive threshold signal over background. BLI imaging was performed bi-weekly for 2 weeks after coinjection of BPV with dmPGE2 or vehicle.
# The data in FIGS. 23A-C and 24 are shown as the mean±s.e.m. with n=6 mice. […]
structure (smiles),measurement,setting,value
CCCCN1CCCCC1C(=O)Nc1c(C)cccc1C (centres unmarked) [bupivacaine],NOAEL,[1],0.5%
same,muscle regeneration (fold change in BLI) vs BPV dose,[2],dose-dependent increase in muscle regeneration
